Assay results as given in patent US8410094B2, “Amide compounds, their pharmaceutical compositions, their preparation method and their uses” (Shanghai Institute of Materia Medica, Chinese Academy of …, priority 2008, dated 2013).

Biological target: T1, CCR5 (Homo sapiens, UniProt P51681)
T1 construct: expressed in transfected cells
Assay: Inhibition of CCR5: [35S]GTPγS binding assays (filtration, SPA-WGA) and calcium influx assay, 10 nM RANTES, CHO-CCR5
Format: biochemical
Details: for inhibition at 0.03 µM: compound at 30 nM, read-out: inhibition against CCR5 @30 nM; for inhibition at 0.03 µM / inhibition at 0.3 µM: 10 nM RANTES; for inhibition at 0.3 µM: compound at 300 nM, read-out: inhibition against CCR5 @300 nM; for IC50: inhibition of GTPγS binding induced by 10 nM RANTES, CHO-CCR5
Procedure: CCR5 belongs to G-Protein-Coupled Receptor (GPCR) family. The developing technology of GPCR-based drugs have been well-developed, among them, the experimental techniques such as ligand-receptor binding assay, GTPγS binding assay and Ca^2+ flux assay have been widely used in drug-screening related to chemokine receptors. The inhibitory activities of the compounds according to the present invention against CCR5 are measured by three methods, i.e., [^35S]GTPγS filter binding assay, SPA-WGA-based [^35S]GTPγS binding assay and calcium influx assay. At the same time, the antiviral activities in cell of the compounds according to the present invention are evaluated by using two kinds HIV-1 subtypes: H4DA5 cell model and PBMC system virus replication model.
A. [^35S]GTPγS Binding Assay
After binding with an agonist, CCR5 experiences a conformation change such that CCR5 interacts with G protein so as to active the G protein. G protein is a tripolymer composed of α-subunit and βγ-subunit. Since the ability of α-subunit binding to GTP depends on the interaction of CCR5 with the agonist, the ability of an agonist for activating CCR5 can be reflected by determining the amount of GTP binding to α-subunit. In a GTPγS binding assay, a ^35S-labeled GTP analogue GTPγS, which can bind with an activated α-subunit without being hydrolyzed, is used to replace GTP in order for eliminating the defect that the amount of GTP binding to G protein can not exactly reflect the activation of CCR5 due to the hydrolysis of GTO by GTPase and for convenience of detection. So, α-subunit binds with GDP when CCR5 is not activated, and after the activation of CCR5, α-subunit binds with GTPγS such that GTPγS irreversible binds to α-subunit. Therefore, the amount of [^35S]-GTPγS binding to α-subunit could reflect the level of CCR5 activated by an agonist. The ability of the agonist for activating CCR5 will decrease when an antagonist is added.
Such experiment has been referred to as GTPγS filtration assay in which [^35S]-GTPγS bound with the free G protein could be separated by membrane filtration.
Alternatively, SPA (Scintillation Proximity Assay) technique can be used to detect the [^35S]-GTPγS bound to G protein, which is called SPA-WGA-based [35S]GTPγS binding assay. The principle of SPA technique is as follows. Sub-atomic particles released during the decay of radioactive atoms, for example β-ray (electron), can excite microspheres at a sufficiently close distance to emit light so as to be detected by a Scintillation Counter. In an aqueous solution, most of the energy of these rays is absorbed by the solvent, and the traveling distance of these rays is limited.
The activation of G protein by CCR5 is determined by the following experiments.
CHO (Chinese hamster ovary cell) permanent cell line expressing CCR5 (CHO-CCR5) (a cell line constructed by Shanghai Targetdrug Ltd.) was lysed with a lysis buffer (5 mM Tris-HCl, pH 7.5, 5 mM EDTA and 5 mM EGTA) and then centrifugated at 15,000×g for 10 min to obtain cell membrane. After the cell membrane was resuspended in a reaction buffer (5 mM Tris-HCl, pH 7.5, 5 mM MgCl2, 1 mM EGTA, 100 mM NaCl), the protein concentration was determined using Bioford Protein Assay Kit manufactured by Bio-Rad Laboratories Inc. Subsequently, GTPγS binding assay was performed in the reaction buffer, wherein the reaction system was 100 μL containing 10 μg membrane protein, 40 μM GDP and 0.5 nM [^35S]-GTPγS (1200 Ci/mmol). After the compound to be tested (the compound was first dissolved in DMSO and then diluted in gradient with the reaction buffer according to the specific situation, wherein the final concentration of DMSO was 1% (v/v) in the whole reaction system) was added and shaken to mix homogeneously, the reaction tube was incubated at 30° C. for 1 hour. After the reaction finished, the tube was placed on ice, and the reaction mixture was diluted with PBS to quench the reaction and filtered under reduced pressure with a GF/C filter membrane. […]

T1 sequence (P51681 whole entry): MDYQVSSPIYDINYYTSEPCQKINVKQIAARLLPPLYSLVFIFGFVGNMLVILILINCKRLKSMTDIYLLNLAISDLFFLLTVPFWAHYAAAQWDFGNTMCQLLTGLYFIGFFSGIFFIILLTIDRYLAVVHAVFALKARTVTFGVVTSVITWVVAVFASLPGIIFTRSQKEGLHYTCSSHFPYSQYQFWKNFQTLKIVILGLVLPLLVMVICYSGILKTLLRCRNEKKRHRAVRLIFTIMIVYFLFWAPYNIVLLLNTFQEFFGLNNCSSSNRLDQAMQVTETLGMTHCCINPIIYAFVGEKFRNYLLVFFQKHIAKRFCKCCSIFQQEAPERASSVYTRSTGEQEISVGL

| SMILES | IC50 | inhibition at 0.03 µM | inhibition at 0.3 µM | other results |
| --- | --- | --- | --- | --- |
| CC(=O)N1CCC(C(=O)N(CCCN2C3CCC2CC(NC(=O)c2cccnc2)C3)c2ccc(C)c(Cl)c2)CC1 (stereo not drawn) [Compound 7t, 1-acetyl-N-(3-chloro-4-methylphenyl)-N-(3-(3-exo-nicotinamido-8-azabicyclo[3.2.1]oct-8-yl)propyl)-4-piperidinylcarboxamide] | – | 3.36% | 15.6% | – |
| CC(=O)N1CCC(C(=O)N(CCCN2C3CCC2CC(NC(=O)c2ccc(C(F)(F)F)cc2)C3)c2ccc(C)c(Cl)c2)CC1 (stereo not drawn) [Compound 7u, 1-acetyl-N-(3-chloro-4-methylphenyl)-N-(3-(3-exo-p-trifluoromethylbenzoylamido-8-azabicyclo[3.2.1]oct-8-yl)propyl)-4-piperidinylcarboxamide] | – | 26.5% | 96.3% | – |
| CC(=O)N1CCC(C(=O)N(CCCN2C3CCC2CC(NC(=O)CCc2cccnc2)C3)c2ccc(C)c(Cl)c2)CC1 (stereo not drawn) [Compound 7v, 1-acetyl-N-(3-chloro-4-methylphenyl)-N-(3-(3-exo-(3-(3-pyridyl)propionamido)-8-azabicyclo[3.2.1]oct-8-yl)propyl)-4-piperidinylcarboxamide] | – | 17.5% | 76.7% | – |
| CC(=O)N1CCC(C(=O)N(CCCN2[C@@H]3CC[C@H]2C[C@H](NC(=O)COc2ccc4ccccc4c2)C3)c2ccc(C)c(Cl)c2)CC1 [Compound 7w, 1-acetyl-N-(3-chloro-4-methylphenyl)-N-(3-(3-exo-(2-(2-naphthoxy)acetamido)-8-azabicyclo[3.2.1]oct-8-yl)propyl)-4-piperidinylcarboxamide] | 18.1 nM | – | – | – |
| CC(=O)N1CCC(C(=O)N(CCCN2[C@@H]3CC[C@H]2C[C@H](NC(=O)COc2ccc(Cl)cc2)C3)c2ccc(C)c(Cl)c2)CC1 [Compound 7x, 1-acetyl-N-(3-chloro-4-methylphenyl)-N-(3-(3-exo-(2-p-chlorophenoxy)acetamido-8-azabicyclo[3.2.1]oct-8-yl)propyl)-4-piperidinylcarboxamide] | 27.3 nM | – | – | – |
| CC(=O)N1CCC(C(=O)N(CCCN2[C@@H]3CC[C@H]2C[C@H](NC(=O)COc2ccc(Cl)cc2Cl)C3)c2ccc(C)c(Cl)c2)CC1 [Compound 7y, 1-acetyl-N-(3-chloro-4-methylphenyl)-N-(3-(3-exo-(2-(2,4-dichlorophenoxy)acetamido)-8-azabicyclo[3.2.1]oct-8-yl)propyl)-4-piperidinylcarboxamide] | 24.6 nM | – | – | – |
| CNS(=O)(=O)c1ccc(CC(=O)N[C@@H]2C[C@H]3CC[C@@H](C2)N3CCCN(C(=O)C2CCN(C(C)=O)CC2)c2ccc(C)c(Cl)c2)cc1 [Compound 7z, 1-acetyl-N-(3-chloro-4-methylphenyl)-N-(3-(3-exo-(2-(4-(N-methylsulphonyl)phenyl)acetamido)-8-azabicyclo[3.2.1]oct-8-yl)propyl)-4-piperidinylcarboxamide] | 17.3 nM | – | – | – |
| CC(=O)N1CCC(C(=O)N(CCCN2[C@@H]3CC[C@H]2C[C@H](NS(C)(=O)=O)C3)c2ccc(C)c(Cl)c2)CC1 [Compound 9a, 1-acetyl-N-(3-chloro-4-methylphenyl)-N-(3-(3-exo-(methylsulfonyl amido)-8-azabicyclo[3.2.1]oct-8-yl)propyl)-4-piperidinylcarboxamide] | 20.1 nM | – | – | – |
| CC(=O)N1CCC(C(=O)N(CCCN2[C@@H]3CC[C@H]2C[C@H](NS(=O)(=O)c2ccc([N+](=O)[O-])cc2)C3)c2ccc(C)c(Cl)c2)CC1 [Compound 9c, 1-acetyl-N-(3-chloro-4-methylphenyl)-N-(3-(3-exo-(4-nitrophenylsulfonylamido)-8-azabicyclo[3.2.1]oct-8-yl)propyl)-4-piperidinylcarboxamide] | 3.3 nM | – | – | – |
| CC(=O)N1CCC(C(=O)N(CCCN2[C@@H]3CC[C@H]2C[C@H](NS(=O)(=O)c2cccc([N+](=O)[O-])c2)C3)c2ccc(C)c(Cl)c2)CC1 [Compound 9d, 1-acetyl-N-(3-chloro-4-methylphenyl)-N-(3-(3-exo-(3-nitrophenylsulfamide)-8-azabicyclo[3.2.1]oct-8-yl)propyl)-4-piperidinylcarboxamide] | 2.59 nM | – | – | – |
| CC(=O)N1CCC(C(=O)N(CCCN2[C@@H]3CC[C@H]2C[C@H](NS(=O)(=O)Cc2ccccc2)C3)c2ccc(C)c(Cl)c2)CC1 [Compound 9e, 1-acetyl-N-(3-chloro-4-methylphenyl)-N-(3-(3-exo-(phenylmethylsulfonylamido)-8-azabicyclo[3.2.1]oct-8-yl)propyl)-4-piperidinylcarboxamide] | 7.4 nM | – | – | – |
| CC(=O)N1CCC(C(=O)N(CCCN2[C@@H]3CC[C@H]2C[C@H](NS(=O)(=O)c2cccs2)C3)c2ccc(C)c(Cl)c2)CC1 [Compound 9f, 1-acetyl-N-(3-chloro-4-methylphenyl)-N-(3-(3-exo-(thienyl-2-sulfonylamido)-8-azabicyclo[3.2.1]oct-8-yl)propyl)-4-piperidinylcarboxamide] | 2.53 nM | – | – | – |
| COc1ccc(NC(=O)NC2CC3CCC(C2)N3CCCN(C(=O)C2CCN(C(C)=O)CC2)c2ccc(C)c(Cl)c2)cc1 (stereo not drawn) [Compound 10a, 1-acetyl-N-(3-chloro-4-methylphenyl)-N-(3-(3-exo-(3-(4-methoxylphenyl)ureylene)-8-azabicyclo[3.2.1]oct-8-yl)propyl)-4-piperidinylcarboxamide] | – | – | – | inhibition against CCR5 (class symbol in IC50 column) (class by inhibition at 30 nM or 300 nM): ++ (the compound at 300 nM has an inhibition against CCR5 of more thant 50% at 300 nM) |
| CC(=O)N1CCC(C(=O)N(CCCN2C3CCC2CC(NC(=O)Nc2ccccc2)C3)c2ccc(C)c(Cl)c2)CC1 (stereo not drawn) [Compound 10c, 1-acetyl-N-(3-(3-(3-phenylureylene)-8-azabicyclo[3.2.1]oct-8-yl)propyl)-N-(3-chloro-4-methylphenyl)-4-piperidinylcarboxamide] | – | 33.5% | 41.9% | – |
| CC(=O)N1CCC(C(=O)N(CCCN2C3CCC2CC(n2c(C)nnc2C(C)C)C3)c2ccc(C)c(Cl)c2)CC1 (stereo not drawn) [Compound 11, 1-acetyl-N-(3-chloro-4-methylphenyl)-N-(3-(3-exo-(3-isopropyl-5-methyl-4-hydro-1,2,4-triazol-4-yl)-8-azabicyclo[3.2.1]oct-8-yl)propyl)-4-piperidinylcarboxamide] | – | 48.8% | 98.4% | – |
| Cc1ccc(S(=O)(=O)NC2CC3CCC(C2)N3CCCN(C(=O)C2CCCCC2)c2ccc(C)c(Cl)c2)cc1 (stereo not drawn) [Compound 15a, N-(3-chloro-4-methylphenyl)-N-(3-(3-exo-(4-tolylsulfonamido)-8-azabicyclo[3.2.1]oct-8-yl)propyl)cyclohexylcarboxamide] | – | 45.2% | 100% | – |

Now from value to compound, other results behind:

| IC50 | SMILES | inhibition at 0.03 µM | inhibition at 0.3 µM | other results |
| --- | --- | --- | --- | --- |
| 28.7 nM | CC(=O)N1CCC(C(=O)N(CCCN2C3CCC2CC(NC(=O)Nc2ccc(Cl)c(C(F)(F)F)c2)C3)c2ccc(C)c(Cl)c2)CC1 (stereo not drawn) [Compound 10b, 1-acetyl-N-(3-(3-(3-(4-chloro-3-(trifluoromethyl)phenyl)ureylene)-8-azabicyclo[3.2.1]oct-8-yl)propyl)-N-(3-chloro-4-methylphenyl)-4-piperidinylcarboxamide] | – | – | – |
| 2.06 nM | Cc1ccc(S(=O)(=O)N[C@@H]2C[C@H]3CC[C@@H](C2)N3CCCN(C(=O)C2CCN(S(C)(=O)=O)CC2)c2ccc(C)c(Cl)c2)cc1 [Compound 15b, N-(3-chloro-4-methylphenyl)-N-(3-(3-exo-(4-tolylsulfonamido)-8-azabicyclo[3.2.1]oct-8-yl)propyl)-1-(methylsulfonyl)-4-piperidinylcarboxamide] | – | – | – |
